Data on 4 compounds can be found in patent publication EP4799637A1, “NASAL ADMINISTRATION COMPOSITION CONTAINING GLP-1 RECEPTOR AGONIST, AND PREPARATION METHOD THEREFOR AND USE THEREOF” (Zhongshan Wanhan Pharmaceutical Co., Ltd., priority 2023, dated 2025).

Data set [1] can be described thus: parallel artificial membrane permeability assay (PAMPA) of semaglutide formulations with permeation promoters. Type of data set: in vitro ADME. The note with it: Skin PAMPA, permeation promoters at the same concentration of 0.25% (w/v%). Here is the method: 1.1. Test objective: to investigate the differences in in-vitro permeability of semaglutide having a concentration of 10 mM in pH7.4 […] buffer by using the PAMPA method after the addition of different types and proportions of permeation promoters. An appropriate amount of 10 mM semaglutide mother liquor was weighed and placed in a liquid phase injection vial, and different permeation promoters were weighed and added correspondingly according to types and proportions listed in Table 1; a magnetic stirrer was added; the magnetic stirrer was turned on to adjust a rotation speed to 650 rpm; and the temperature of the magnetic stirrer was kept at 37°C, followed by stirring for later use. Table 1 • Donor wells solutions were solutions of Formulations 1-20; • An acceptor wells solution was pH 7.4 Prisma HT buffer. • 1) PAMPA membrane hydration: a Hydration Solution (Pion) was prepared (used at room temperature); donor wells of a PAMPA plate were carefully removed; 200 μl of Hydration Solution was added to each well, and whether each empty surface forms a curved surface due to surface tension was observed; and acceptor wells of the PAMPA plate were covered carefully, while air bubbles were avoided on contact surfaces. The Hydration Solution was kept moist and hydrated overnight, and the hydrated membrane will appear translucent or have white spots. […]

Data set [2] is described as follows: Compatibility/stability study: HPLC main peak purity and impurities after storage in the dark at 40°C and 50°C. The class given is physicochemical. Particulars: result in words. How it is done:
The changes in semaglutide content and impurities in a semaglutide solution, semaglutide+different permeation promoter solutions, and semaglutide+different bacteriostatic agent solutions were determined under HPLC conditions in Example 1 after being stored in the dark for 10 days (10 D) at 40°C and 50°C, and the results were shown in Table 7.
The definitions of the hydrophilic impurities 1 and 2 and the hydrophobic impurity in Table 7 were shown in HPLC chromatograms of Formulations C1 to C4 shown in FIGS. 1-4 determined at 50°C on Day 10.
As a control, main peak intensities of compositions J and K in CN116942612A at 50°C on Day 5 were determined using the same method, both of which were below 95%.

Regarding `CCCCCCCCCCCC(=O)OCCOCCOCCOCCOCCOCCOCCOCCOCCOCCOCCOCCOCCOCCOCCOCCOCCOCCOCCOCCOCC(OCCOCCOCCOCCOCCOCCOCCOCCOCCOCCOCCOCCOCCOCCOCCOCCOCCOCCOCCOCCO)C1OCC(OCCOCCOCCOCCOCCOCCOCCOCCOCCOCCOCCOCCOCCOCCOCCOCCOCCOCCOCCOCCO)C1OCCOCCOCCOCCOCCOCCOCCOCCOCCOCCOCCOCCOCCOCCOCCOCCOCCOCCOCCOCCO` (stereo not shown) [polysorbate-20], the permeation promoting effect result in data set [1] was “better permeation promoting effects”. The same measure, in the same setting: in the case of polyoxyethylene (8) dodecyl ether it was “better permeation promoting effects”.

Take benzalkonium chloride: the “protective effect on semaglutide (inhibited degradation)” value in data set [2] was “protective effect on semaglutide”. Consider `CCCCCCCCCCCCO[C@@H]1O[C@H](CO)[C@@H](O[C@H]2O[C@H](CO)[C@@H](O)[C@H](O)[C@H]2O)[C@H](O)[C@H]1O` [dodecyl-β-D-maltoside], for which, in data set [1], the permeation promoting effect result is recorded as “better permeation promoting effects”.
